This note sets out measurements from ChEMBL document CHEMBL1126515 (Bioorg Med Chem Lett, 1993).

Test [1] has as its target T1, Cholecystokinin receptor type A (Rattus norvegicus, UniProt P30551).
T1 sequence (P30551 whole entry): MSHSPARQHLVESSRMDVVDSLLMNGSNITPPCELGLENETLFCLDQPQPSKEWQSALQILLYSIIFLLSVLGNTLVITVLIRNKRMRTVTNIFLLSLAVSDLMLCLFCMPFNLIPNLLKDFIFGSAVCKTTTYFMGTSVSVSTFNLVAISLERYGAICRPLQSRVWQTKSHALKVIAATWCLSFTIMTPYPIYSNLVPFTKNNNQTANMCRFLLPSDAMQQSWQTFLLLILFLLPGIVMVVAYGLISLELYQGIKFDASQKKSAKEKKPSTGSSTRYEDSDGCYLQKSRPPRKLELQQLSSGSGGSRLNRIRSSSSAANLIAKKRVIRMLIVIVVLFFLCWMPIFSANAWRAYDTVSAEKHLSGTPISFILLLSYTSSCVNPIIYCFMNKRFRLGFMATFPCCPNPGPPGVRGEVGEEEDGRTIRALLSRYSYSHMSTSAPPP
Description: Compound measured for half-maximal inhibition of specific binding of [125I]-Bolton Hunter CCK-26-33 to CCK-A receptor in the rat pancreas.

Test [2] has as its target T2, Gastrin/cholecystokinin type B receptor (Mus musculus, UniProt P56481).
T2 sequence (P56481 whole entry): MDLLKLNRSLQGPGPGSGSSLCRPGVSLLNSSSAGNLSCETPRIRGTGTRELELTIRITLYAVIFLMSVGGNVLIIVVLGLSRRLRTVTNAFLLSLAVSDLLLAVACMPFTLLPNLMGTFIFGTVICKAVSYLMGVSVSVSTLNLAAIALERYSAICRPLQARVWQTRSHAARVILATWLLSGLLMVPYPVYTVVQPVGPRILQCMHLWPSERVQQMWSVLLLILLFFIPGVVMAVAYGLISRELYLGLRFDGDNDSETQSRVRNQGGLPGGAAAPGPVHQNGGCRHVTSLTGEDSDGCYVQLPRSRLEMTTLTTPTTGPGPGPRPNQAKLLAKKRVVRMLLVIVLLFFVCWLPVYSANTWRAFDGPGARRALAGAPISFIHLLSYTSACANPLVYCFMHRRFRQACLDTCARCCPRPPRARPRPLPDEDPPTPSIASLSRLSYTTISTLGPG
Briefly: Compound measured for half-maximal inhibition of specific binding of [125I]bolton Hunter CCK-26-33 to CCK-B receptor in the mouse cerebral cortex. Type of test: tissue-based.

Broadly, the IC50 is the midpoint of a concentration-inhibition curve. Higher therefore signals weaker potency in that assay.

For the molecule `O=C(O)C[C@H](Cc1ccccc1)NC(=O)C(=Cc1c[nH]c2ccccc12)NC(=O)OC1C2CC3CC(C2)CC1C3` (some centres undefined), the IC50 in test [1] was found to be 18 nM; in test [2], 0.3 nM.

Take `C[C@](Cc1c[nH]c2ccccc12)(NC(=O)OC1C2CC3CC(C2)CC1C3)C(=O)N[C@H](CC(=O)O)Cc1ccccc1` (some centres undefined): it took 30 nM to reach half-maximal inhibition in test [1] (IC50).

For the molecule `O=C(O)C[C@H](Cc1ccccc1)NC(=O)/C(=C/c1c[nH]c2ccccc12)NC(=O)OC1C2CC3CC(C2)CC1C3` (some centres undefined), the IC50 is 550 nM in test [1] and 13 nM in test [2].

With `O=C(O)C[C@@H](Cc1ccccc1)NC(=O)C(=Cc1c[nH]c2ccccc12)NC(=O)OC1C2CC3CC(C2)CC1C3` (some centres undefined), the IC50 stood at 3.9 nM in test [1] and 60 nM in test [2].

Consider `O=C(O)C[C@@H](Cc1ccccc1)NC(=O)/C(=C/c1c[nH]c2ccccc12)NC(=O)OC1C2CC3CC(C2)CC1C3` (some centres undefined), for which the IC50 in test [1] was 3.7 nM; in test [2], 99 nM.
